Key:
ICR mice = assay: In vivo pharmacodynamic test in the forced swimming model in mice; conditions: for immobility time during the latter four minutes compared with that of the model group: 10 mg/kg p.o.; for Mean (immobility, %) / Mean (immobility, s): 10 mpk p.o.; for Mean (immobility, %): floating time percentage = 100*floating time/240 s; for Mean (immobility, s): latter four minutes of 6 min swim
Description: The antidepressant effect of the compound was evaluated by the forced swimming model in mice.
Male ICR mice (25-35 g) were adapted in the test environment for 3 days before the forced swimming test.
According to the test design, the mice were randomly grouped on the day before the test according to body weight, with 12 mice in each group. Before the test, the compounds of each example were administrated intragastrically according to the Tmax thereof in the brain in mice pharmacokinetic test as follows:
1) Model group (0.5% CMC-Na+1% Tween 80 solution, p.o., 10 mL/kg);
2) Compounds of Example 2, Example 5, Example 7, Example 18, Example 23, Example 26 and Example 50 (10 mg/kg, p.o., 10 mL/kg).
When being administrated, the compounds of each example were suspended in 0.5% CMC-Na-1% Tween 80 solution to the desired concentration.
0.5-1 hour after administration, ICR mice were placed in a forced swimming device (transparent glass drum (water depth 18 cm, water temperature 25-26° C.), one mouse per tank) and forced to swim for 6 minutes. The forced swimming device recorded the floating time of the ICR mice during the entire 6 minutes, and the data of the latter four minutes were used for data analysis. The mice were taken out immediately after the swimming test, wiped dry and put back in their original cages.
Note: The criterion for determining the immobility time is that the mouse stops struggling in water and floats, and there are only slight limb movements to keep the head floating on the water.
3.4 Data Analysis Floating time percentage=100*floating time/240 s.

GABA-A receptor = assay: 35S-TBPS binding assay on rat cerebral cortex cell membrane; parameters: species or system Sprague-Dawley rat; conditions: 2 nM 35S-TBPS, GABA added, read-out: 35S-TBPS bindng test, IC50 on inhibiting the TBPS binding activity
Method in brief: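 Male Sprague-Dawley rat cortical membranes in PBS were preincubated 5 min at 25 °C with compound (8-point 3-fold series […], 1% DMSO), then with GABA ([…]). 2 nM 35S-TBPS was added for 20 h at 4 °C, followed by GF/C filtration and scintillation counting. % inhibition was normalised to DMSO and 10 μM reference controls, with IC50 from a 4-parameter fit.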

Row | SMILES | immobility time during the latter four minutes compared with that of the model group (ICR mice) | Mean (immobility, %) (ICR mice) | Mean (immobility, s) (ICR mice) | IC50 (GABA-A receptor)
1 | C[C@@]1(O)CC[C@@]2(F)[C@H](CC[C@H]3[C@@H]4CC[C@H](C(=O)Cn5cc(C#N)cn5)[C@@]4(C)CC[C@@H]32)C1 [Example 2, 1-(2-((3R,5R,8S,9S,10R,13S,14S,17S)-10-Fluoro-3-hydroxy-3,13-dimethylhexadecahydro-1H-cyclopenta[a]phenanthren-17-yl)-2-oxoethyl)-1H-pyrazole-4-carbonitrile] | significantly different | 36.39% | 87.34 s | 11.8 nM
2 | C[C@@]1(O)CC[C@@]2(F)[C@H](CC[C@H]3[C@@H]4CC[C@H](C(=O)Cn5ccc(C(F)(F)F)n5)[C@@]4(C)CC[C@@H]32)C1 [Example 5, 1-((3R,5R,8S,9S,10R,13S,14S,17S)-10-Fluoro-3-hydroxy-3,13-dimethylhexadecahydro-1H-cyclopenta[a]phenanthren-17-yl)-2-(3-(trifluoromethyl)-1H-pyrazol-1-yl)ethan-1-one] | very significantly different | 27.11% | 65.07 s | 8.3 nM
3 | C[C@@]1(O)CC[C@@]2(F)[C@H](CC[C@H]3[C@@H]4CC[C@H](C(=O)CNc5ccc(F)cc5)[C@@]4(C)CC[C@@H]32)C1 [Example 23, 1-((3R,5R,8S,9S,10R,13S,14S,17S)-10-Fluoro-3-hydroxy-3,13-dimethylhexadecahydro-1H-cyclopenta[a]phenanthren-17-yl)-2-((4-fluorophenyl)amino)ethan-1-one] | very significantly different | 28.55% | 68.51 s | 30.9 nM
